Values of other authors in patent US20060188878A1, “Methods to predict ederma as a side effect of drug treatment” (priority 2002, published 2006).

System: CML
[1] = of 54 CML patients treated with 300 mg or more

## Cc1ccc(NC(=O)c2ccc(CN3CCN(C)CC3)cc2)cc1Nc1nccc(-c2cccnc2)n1 [Imatinib]
[1]
  Patients with complete cytogenetic remission: 7
  Patients with complete hematologic responses: 53
  Patients with cytogenic responses: 29
  Patients with major cytogenetic responses (0-35% of cells in metaphase positive for the Ph′ chromosome): 17
Of the 54 patients who received the dose (300 mg or more)
  Patients with major cytogenetic responses, percent: 31%
